The values that follow come from paper PMC3102446, “Different Effects of Mg^2+ and Zn^2+ on the Two Sites for Alkylammonium Compounds in Pseudomonas aeruginosa Phosphorylcholine Phosphatase” (Enzyme Research, 2011).

In one data set the target is T1, Pseudomonas aeruginosa phosphorylcholine phosphatase (PchP) (Pseudomonas aeruginosa, UniProt Q9HTR2).
T1 construct: His-tag fusion produced in E. coli BL21 CodonPlus; purified with EDTA to remove residual metal
T1 sequence (Q9HTR2 23-349): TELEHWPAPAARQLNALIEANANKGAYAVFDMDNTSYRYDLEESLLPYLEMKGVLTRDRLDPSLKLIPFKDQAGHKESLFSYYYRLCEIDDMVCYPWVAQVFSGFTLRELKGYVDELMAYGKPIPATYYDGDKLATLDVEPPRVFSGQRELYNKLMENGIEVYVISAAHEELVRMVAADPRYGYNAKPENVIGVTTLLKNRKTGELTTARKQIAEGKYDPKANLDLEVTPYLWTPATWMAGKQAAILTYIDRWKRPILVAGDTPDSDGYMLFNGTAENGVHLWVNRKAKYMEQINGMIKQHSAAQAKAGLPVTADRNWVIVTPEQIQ
As to the kind of experiment: biochemical.
Settings: not given
The source says:
inhibition of p-NPP hydrolysis, DYNAFIT global fit on Pseudomonas aeruginosa phosphorylcholine phosphatase (PchP)
Turning to `C[N+](C)(C)CCCCCCCCCC[N+](C)(C)C` [Decamethonium], the Ki (commonly the dissociation constant of the complex between target and ligand, obtained from inhibition or displacement) was determined as 80 ± 10 µM. `COc1cc2c3cc1Oc1cc(ccc1O)C[C@@H]1c4c(cc(OC)c(O)c4Oc4ccc(cc4)C[C@@H]3N(C)CC2)CC[N+]1(C)C` [Tubocurarine] displayed a Ki of 2510 ± 210 µM. For `C[N+](C)(C)CCCl` [Chlorocholine], the affinity corresponds to a Ki of 120 ± 10 µM. Compound `C[N+](C)(C)CCO` [Choline] registered a Ki of 100 ± 10 µM. Same read-out and setting: in the case of `CC(C)(N)CO` [2-amino-2-methyl-1-propanol] it was 210 ± 10 µM. `CN(C)C(=O)Oc1cccc([N+](C)(C)C)c1` [Neostigmine] displayed a Ki of 570 ± 50 µM. On to `N[C@H](CO)Cc1c[nH]cn1` [L-histidinol], for which the Ki is 310 ± 80 µM. Take `C[N+](C)(C)CCCCCC[N+](C)(C)C` [Hexamethonium]: the affinity corresponds to a Ki of 80 ± 10 µM. The compound `C[N+](C)(C)CC(=O)[O-]` [Betaine] displayed a Ki of 1440 ± 90 µM. Still for that read-out and setting: in the case of `CN(C)C` [Trimethylamine] it was 60 ± 10 µM; in that of `C[N+](C)(C)C` [Tetramethylammonium], 35 ± 8 µM.

The subject of a further data set is C[N+](C)(C)CCOP(=O)([O-])O. As to the kind of experiment: purified protein. The note with it: 0.25-2 mM Mg2+, 100 mM sodium acetate pH 5.0, 37 °C, kcat1 of productive EAS complex.
Source text: Pi release assay, DYNAFIT global fit on Pseudomonas aeruginosa phosphorylcholine phosphatase (PchP)
Regarding “Pseudomonas aeruginosa phosphorylcholine phosphatase (PchP) (Pseudomonas aeruginosa PAO1)”, the Km (commonly the substrate concentration at which the rate is half of its maximum) worked out at 21 ± 8 µM; the kcat (as a rule, the number of substrate molecules converted per active site and unit of time at saturation) came to 121 ± 8 s⁻¹.
